According to ChEMBL document CHEMBL1201862, “PubChem BioAssay data set” (2004):
Calls of active or inactive are those of the source.

What was measured:
[1] = target: DNA dC->dU-editing enzyme APOBEC-3G (Homo sapiens, UniProt Q9HC16); assay: Dose Response confirmation of small molecule APOBEC3G DNA Deaminase Inhibitors via a fluorescence-based single-stranded DNA deaminase assay. [Related pubchem assays (depositor defined):AID493012, AID493028]; type: functional
[2] = target: T1, DNA repair protein RAD52 homolog (Homo sapiens, UniProt P43351); type: functional, biochemical
T1 sequence (P43351 whole entry): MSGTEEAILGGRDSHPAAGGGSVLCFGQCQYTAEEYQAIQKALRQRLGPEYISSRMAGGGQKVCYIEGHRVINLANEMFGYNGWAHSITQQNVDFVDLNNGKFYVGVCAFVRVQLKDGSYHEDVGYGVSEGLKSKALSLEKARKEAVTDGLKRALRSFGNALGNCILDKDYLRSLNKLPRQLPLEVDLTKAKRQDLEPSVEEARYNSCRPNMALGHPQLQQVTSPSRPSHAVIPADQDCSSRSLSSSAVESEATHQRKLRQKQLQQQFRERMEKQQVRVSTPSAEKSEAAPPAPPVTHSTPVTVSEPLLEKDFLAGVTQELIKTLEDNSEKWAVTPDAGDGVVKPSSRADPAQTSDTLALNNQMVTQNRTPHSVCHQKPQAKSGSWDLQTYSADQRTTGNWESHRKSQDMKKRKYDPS

[3] = target: Peroxisome proliferator-activated receptor gamma/Nuclear receptor coactivator 2 (Homo sapiens, UniProt P37231); type: functional;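 note: agonist potency for raising coactivator recruitment to the receptor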
[4] = target: Peroxisome proliferator-activated receptor gamma/Nuclear receptor coactivator 3 (Homo sapiens, UniProt P37231); type: functional;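 note: agonist potency for raising coactivator recruitment to the receptor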
Sequence of Peroxisome proliferator-activated receptor gamma/Nuclear receptor coactivator 3 (P37231 whole entry): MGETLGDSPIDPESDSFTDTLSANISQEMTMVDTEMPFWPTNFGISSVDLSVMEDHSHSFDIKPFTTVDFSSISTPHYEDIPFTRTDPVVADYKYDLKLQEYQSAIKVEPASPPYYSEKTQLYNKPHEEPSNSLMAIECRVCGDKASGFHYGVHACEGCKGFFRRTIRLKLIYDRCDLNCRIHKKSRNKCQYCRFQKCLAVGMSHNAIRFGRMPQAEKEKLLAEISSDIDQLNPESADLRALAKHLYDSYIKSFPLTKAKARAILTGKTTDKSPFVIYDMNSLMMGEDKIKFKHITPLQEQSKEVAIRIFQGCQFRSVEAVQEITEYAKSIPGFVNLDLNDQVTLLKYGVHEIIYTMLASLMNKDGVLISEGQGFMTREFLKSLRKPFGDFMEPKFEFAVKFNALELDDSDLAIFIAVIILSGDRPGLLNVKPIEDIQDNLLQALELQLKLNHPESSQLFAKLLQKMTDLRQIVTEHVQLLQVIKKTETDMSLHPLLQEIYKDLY
Sequence of Peroxisome proliferator-activated receptor gamma/Nuclear receptor coactivator 3 (Q9Y6Q9 whole entry, further chain): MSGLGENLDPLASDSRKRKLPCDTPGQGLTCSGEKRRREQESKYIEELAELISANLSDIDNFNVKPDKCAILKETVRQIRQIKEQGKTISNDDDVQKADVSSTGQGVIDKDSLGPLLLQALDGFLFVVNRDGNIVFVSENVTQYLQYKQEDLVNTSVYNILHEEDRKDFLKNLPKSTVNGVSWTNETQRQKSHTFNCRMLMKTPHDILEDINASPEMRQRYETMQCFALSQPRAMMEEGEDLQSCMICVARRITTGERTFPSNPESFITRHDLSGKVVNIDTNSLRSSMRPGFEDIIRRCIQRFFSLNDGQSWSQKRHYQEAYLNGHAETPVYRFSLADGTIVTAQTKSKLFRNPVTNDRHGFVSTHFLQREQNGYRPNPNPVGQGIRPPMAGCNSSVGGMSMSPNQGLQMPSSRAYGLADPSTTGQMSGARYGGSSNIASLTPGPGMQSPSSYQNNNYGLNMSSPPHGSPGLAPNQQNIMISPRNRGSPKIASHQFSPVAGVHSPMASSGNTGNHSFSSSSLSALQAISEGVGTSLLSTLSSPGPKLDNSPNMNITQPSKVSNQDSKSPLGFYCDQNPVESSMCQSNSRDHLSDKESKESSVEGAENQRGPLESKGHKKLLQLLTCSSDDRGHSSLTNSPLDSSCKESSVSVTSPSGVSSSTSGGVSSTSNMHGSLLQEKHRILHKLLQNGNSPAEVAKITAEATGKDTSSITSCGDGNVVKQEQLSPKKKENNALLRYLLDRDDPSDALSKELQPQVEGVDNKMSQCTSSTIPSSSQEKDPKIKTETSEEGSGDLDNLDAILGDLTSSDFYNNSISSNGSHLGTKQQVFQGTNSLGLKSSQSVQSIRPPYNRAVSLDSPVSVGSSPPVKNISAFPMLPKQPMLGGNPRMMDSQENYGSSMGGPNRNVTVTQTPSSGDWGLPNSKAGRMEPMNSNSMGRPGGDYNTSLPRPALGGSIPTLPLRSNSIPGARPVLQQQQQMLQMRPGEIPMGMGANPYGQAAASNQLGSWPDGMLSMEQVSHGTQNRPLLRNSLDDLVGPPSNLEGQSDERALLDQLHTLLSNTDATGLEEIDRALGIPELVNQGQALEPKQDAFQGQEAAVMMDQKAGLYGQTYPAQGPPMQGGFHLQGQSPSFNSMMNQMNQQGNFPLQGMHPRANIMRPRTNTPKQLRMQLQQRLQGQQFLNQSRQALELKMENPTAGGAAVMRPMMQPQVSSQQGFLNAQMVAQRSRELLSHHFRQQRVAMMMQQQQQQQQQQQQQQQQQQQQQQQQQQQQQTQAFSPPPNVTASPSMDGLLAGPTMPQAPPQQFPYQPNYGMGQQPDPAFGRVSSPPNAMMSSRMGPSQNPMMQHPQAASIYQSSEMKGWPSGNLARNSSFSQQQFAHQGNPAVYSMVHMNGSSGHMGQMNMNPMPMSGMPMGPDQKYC

[5] = target: Peroxisome proliferator-activated receptor gamma/Nuclear receptor coactivator 1 (Homo sapiens, UniProt P37231); type: functional;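 note: agonist potency as compounds enhance coactivator SRC-1 recruitment to PPARgamma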
Sequence of Peroxisome proliferator-activated receptor gamma/Nuclear receptor coactivator 1 (P37231 whole entry): as the sequence (P37231 whole entry) above
Sequence of Peroxisome proliferator-activated receptor gamma/Nuclear receptor coactivator 1 (Q15788 whole entry, further chain): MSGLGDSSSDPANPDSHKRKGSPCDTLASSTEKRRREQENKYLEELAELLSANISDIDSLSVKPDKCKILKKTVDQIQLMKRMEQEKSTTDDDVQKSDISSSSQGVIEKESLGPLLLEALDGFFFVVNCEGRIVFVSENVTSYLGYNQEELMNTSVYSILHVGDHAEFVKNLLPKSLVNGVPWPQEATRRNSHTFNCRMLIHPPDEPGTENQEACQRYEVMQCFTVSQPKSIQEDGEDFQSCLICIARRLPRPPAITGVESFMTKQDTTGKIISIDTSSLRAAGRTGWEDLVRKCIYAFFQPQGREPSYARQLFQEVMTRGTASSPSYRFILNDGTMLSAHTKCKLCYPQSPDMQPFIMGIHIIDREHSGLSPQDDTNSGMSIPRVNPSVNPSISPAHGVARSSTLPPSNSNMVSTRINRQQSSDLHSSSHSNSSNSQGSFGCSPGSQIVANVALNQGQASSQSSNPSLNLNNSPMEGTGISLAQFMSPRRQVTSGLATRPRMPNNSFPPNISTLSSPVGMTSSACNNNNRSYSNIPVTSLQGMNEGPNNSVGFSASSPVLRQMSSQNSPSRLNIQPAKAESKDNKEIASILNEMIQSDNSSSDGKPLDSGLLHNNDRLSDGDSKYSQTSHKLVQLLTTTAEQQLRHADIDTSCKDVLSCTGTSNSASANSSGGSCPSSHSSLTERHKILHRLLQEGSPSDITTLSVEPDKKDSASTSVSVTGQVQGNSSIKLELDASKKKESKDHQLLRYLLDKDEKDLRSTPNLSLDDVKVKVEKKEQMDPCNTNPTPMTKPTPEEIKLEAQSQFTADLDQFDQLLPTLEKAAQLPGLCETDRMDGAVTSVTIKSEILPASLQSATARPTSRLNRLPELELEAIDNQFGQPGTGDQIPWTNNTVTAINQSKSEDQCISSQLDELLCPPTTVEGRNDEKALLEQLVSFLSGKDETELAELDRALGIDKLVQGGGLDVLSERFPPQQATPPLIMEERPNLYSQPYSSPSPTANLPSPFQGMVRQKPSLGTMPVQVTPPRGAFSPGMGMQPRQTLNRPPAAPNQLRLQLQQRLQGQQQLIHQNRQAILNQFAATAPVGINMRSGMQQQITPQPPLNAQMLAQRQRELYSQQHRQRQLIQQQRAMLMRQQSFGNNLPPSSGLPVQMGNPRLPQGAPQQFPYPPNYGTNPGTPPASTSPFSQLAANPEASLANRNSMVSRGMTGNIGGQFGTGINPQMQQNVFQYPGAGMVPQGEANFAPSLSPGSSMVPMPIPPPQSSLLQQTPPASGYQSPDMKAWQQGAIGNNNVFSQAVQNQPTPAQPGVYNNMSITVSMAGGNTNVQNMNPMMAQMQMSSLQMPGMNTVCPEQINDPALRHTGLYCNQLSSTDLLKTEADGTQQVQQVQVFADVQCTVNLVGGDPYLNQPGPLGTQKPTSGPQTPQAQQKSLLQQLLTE

[6] = THP-1 cell cytotoxicity, dose response, cytotoxicity control for non-replicating M. tuberculosis project (AID 489025); type: functional
[7] = cells; type: functional
[8] = Vero E6 cell cytotoxicity, dose response, cytotoxicity control for non-replicating M. tuberculosis project, secondary assay (AID 492998); type: functional, VeroE6; conditions: Vero C1008
[9] = microbe, parasite or virus in culture; type: functional; conditions: Mycobacterium tuberculosis
[10] = target: Heat shock protein HSP 90-alpha (Homo sapiens, UniProt P07900); type: functional, organism-based
[11] = target: T2, X-box-binding protein 1 (Homo sapiens, UniProt P17861); type: functional, Cricetulus griseus;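 note: confirmatory dose-response counter-screen serving a CHOP assay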
T2 sequence (P17861 whole entry): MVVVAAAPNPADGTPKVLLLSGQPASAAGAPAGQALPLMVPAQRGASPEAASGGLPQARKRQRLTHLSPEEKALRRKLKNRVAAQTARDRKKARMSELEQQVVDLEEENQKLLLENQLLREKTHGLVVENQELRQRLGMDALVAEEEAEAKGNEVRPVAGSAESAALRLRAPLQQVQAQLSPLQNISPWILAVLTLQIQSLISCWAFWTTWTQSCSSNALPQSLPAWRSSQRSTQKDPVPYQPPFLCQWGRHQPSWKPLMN

[12] = target: Luciferin 4-monooxygenase (Photinus pyralis, UniProt P08659); assay: Counter Screen for Luciferase-based Assay Positives. [Related pubchem assays: 620, 618, 411 ]
Sequence of Luciferin 4-monooxygenase (P08659 whole entry): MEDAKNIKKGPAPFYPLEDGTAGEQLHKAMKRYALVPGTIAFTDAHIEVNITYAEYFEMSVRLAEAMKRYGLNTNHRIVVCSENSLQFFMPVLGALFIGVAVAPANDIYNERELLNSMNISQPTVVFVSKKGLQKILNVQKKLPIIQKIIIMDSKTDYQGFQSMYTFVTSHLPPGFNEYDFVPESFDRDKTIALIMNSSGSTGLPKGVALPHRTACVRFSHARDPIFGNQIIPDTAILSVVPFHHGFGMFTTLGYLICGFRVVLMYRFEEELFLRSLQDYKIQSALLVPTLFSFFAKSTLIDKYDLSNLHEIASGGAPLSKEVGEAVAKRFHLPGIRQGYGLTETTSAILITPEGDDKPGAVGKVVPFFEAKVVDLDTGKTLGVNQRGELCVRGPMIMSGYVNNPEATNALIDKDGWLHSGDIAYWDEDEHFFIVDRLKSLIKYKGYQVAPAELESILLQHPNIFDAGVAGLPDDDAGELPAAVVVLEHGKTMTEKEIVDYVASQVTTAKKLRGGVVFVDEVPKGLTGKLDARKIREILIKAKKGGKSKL

[13] = test system: HT-1080; assay: HT1080 cell viability loss – fluorescence readout (AID 620); type: functional, cell-based; conditions: Homo sapiens
[14] = target: T3, Microphthalmia-associated transcription factor (Homo sapiens, UniProt O75030); assay: reducers of TRPM1 reporter luminescence, concentration series – cell-based, SK-MEL-5, cherry-picked, set 3, MITF inhibitor project, dose response (AID 493073); type: functional;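 note: SK-MEL-5 melanoma cells with luciferase driven by the MITF target TRPM1 promoter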
T3 sequence (O75030 whole entry): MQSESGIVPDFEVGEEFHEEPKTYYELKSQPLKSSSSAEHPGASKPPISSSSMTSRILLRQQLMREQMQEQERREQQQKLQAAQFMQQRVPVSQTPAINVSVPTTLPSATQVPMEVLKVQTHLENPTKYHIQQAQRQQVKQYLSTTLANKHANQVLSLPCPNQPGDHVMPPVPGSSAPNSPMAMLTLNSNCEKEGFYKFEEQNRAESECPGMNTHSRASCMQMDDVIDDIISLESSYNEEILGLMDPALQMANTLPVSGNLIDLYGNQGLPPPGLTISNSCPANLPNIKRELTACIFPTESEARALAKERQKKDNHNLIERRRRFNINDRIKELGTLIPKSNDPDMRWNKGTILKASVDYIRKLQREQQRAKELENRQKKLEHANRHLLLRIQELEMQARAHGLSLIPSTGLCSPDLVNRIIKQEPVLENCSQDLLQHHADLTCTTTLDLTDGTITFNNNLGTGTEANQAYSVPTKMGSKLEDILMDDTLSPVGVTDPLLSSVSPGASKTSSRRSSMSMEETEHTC

[15] = viability loss of HPDE-C7K cells – cell-based, fluorescence, HTS, primary screen (AID 431); type: functional; conditions: Homo sapiens
[16] = HPDE-C7 pancreatic duct cell viability loss – fluorescence, HTS (AID 430); type: functional, cell-based; conditions: Homo sapiens

Sequence of DNA dC->dU-editing enzyme APOBEC-3G (Q9HC16 whole entry): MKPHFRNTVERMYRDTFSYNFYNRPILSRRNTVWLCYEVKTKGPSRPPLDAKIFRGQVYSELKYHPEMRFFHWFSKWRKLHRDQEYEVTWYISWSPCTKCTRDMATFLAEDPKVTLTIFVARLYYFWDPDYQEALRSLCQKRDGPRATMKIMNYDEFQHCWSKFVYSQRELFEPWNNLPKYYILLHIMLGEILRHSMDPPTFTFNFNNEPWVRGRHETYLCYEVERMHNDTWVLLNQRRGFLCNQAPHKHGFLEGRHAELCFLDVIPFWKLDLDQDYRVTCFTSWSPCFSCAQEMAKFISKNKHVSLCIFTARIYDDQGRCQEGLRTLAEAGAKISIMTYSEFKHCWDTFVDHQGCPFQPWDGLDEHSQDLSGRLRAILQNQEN

CCN(CC)CCn1c2ccccc2c2nnc(S)nc21
IC50 [1]: 19.5 µM (active) | AC50 [2]: 5.41 µM (active)

Cc1[nH]c2ccccc2c1C(=O)C(=O)NCCOc1ccccc1
EC50 [3]: > 79.4 µM (not active) | EC50 [4]: > 79.4 µM (not active) | EC50 [5]: > 79.4 µM (not active)

O=C(Nc1ncc(Cc2ccccc2Cl)s1)C1=NCCN1
CC50 [6]: > 40 µM (active) | IC50 [7]: 4.03 µM (active) | CC50 [8]: > 20 µM (active) | CC50 [9]: > 40 µM (active)

CCCCCC(=O)N(O)C1CC(=O)N(c2ccccc2)C1=O (configuration not stated)
IC50 [1]: 59.7 µM (active) | AC50 [10]: 4.5 µM (active)

CCOc1cc(NC(=O)c2cccs2)c(OCC)cc1N=C(S)NCC(C)C
Absolute IC50 (XBP1) [11]: 10 µM

Cc1ccccc1C(=O)N/N=C/c1ccc([N+](=O)[O-])s1
EC50 [12]: 11 µM (active) | EC50 [13]: > 50 µM (not active) | AC50 [14]: 1.88 µM (active)

CCSC1=C(C#N)C(=O)n2c1cc1c2CCCC1
EC50 [15]: 15.4 µM (active) | EC50 [16]: 13.6 µM (active)
